These are literature values, as cited in patent US10471178B2, “Implantable medical devices with increased immune tolerance, and methods for making and implanting” (AMPIO PHARMACEUTICALS, INC., priority 2011, dated 2019).

The series deals with memory but not naive human T lymphocytes. The following applies: memory vs naive human T lymphocytes.

As to `C[C@@H]1NC(=O)[C@H](CC(=O)O)NC1=O` [DA-DKP, Aspartate, Alanine-Diketopiperazine], the “immunomodulatory effect on human T lymphocytes” value is “immunomodulatory for memory but not naive human T lymphocytes”.
